{
  "source": "paper PMC7002685",
  "about": "“Inhibition of vascular calcification by inositol phosphates derivatized with ethylene glycol oligomers” (Nature Communications, 2020)",
  "system": "vascular calcification",
  "experiment": "Vitamin D3 (oral) + warfarin diet rat model of VC",
  "data": [
    {"smiles": "COCCOCCO[C@@H]1[C@@H](OP(=O)(O)O)[C@H](OCCOCCOC)[C@@H](OP(=O)(O)O)[C@@H](OP(=O)(O)O)[C@H]1OP(=O)(O)O", "note": "[(OEG2)2-IP4, 4,6-Di-O-(methoxy-diethyleneglycol)-myo-inositol-1,2,3,5-tetrakis(phosphate)]", "values": [
      {"measurement": "survival (Figure 5d)", "setting": "1x50, Day 4.99", "result": 100, "unit": "%"},
      {"measurement": "animals alive (Figure 5d)", "setting": "1x50, Day 5.01", "result": 19},
      {"measurement": "survival (Figure 5d)", "setting": "1x50, Day 5.01", "result": 100, "unit": "%"},
      {"measurement": "animals alive (Figure 5d)", "setting": "1x50, Day 5.99", "result": 19},
      {"measurement": "survival (Figure 5d)", "setting": "1x50, Day 5.99", "result": 100, "unit": "%"},
      {"measurement": "animals alive (Figure 5d)", "setting": "1x50, Day 6.01", "result": 19},
      {"measurement": "survival (Figure 5d)", "setting": "1x50, Day 6.01", "result": 100, "unit": "%"},
      {"measurement": "animals alive (Figure 5d)", "setting": "1x50, Day 6.99", "result": 19},
      {"measurement": "survival (Figure 5d)", "setting": "1x50, Day 6.99", "result": 100, "unit": "%"},
      {"measurement": "animals alive (Figure 5d)", "setting": "1x50, Day 7.01", "result": 17},
      {"measurement": "survival (Figure 5d)", "setting": "1x50, Day 7.01", "result": 89, "unit": "%"},
      {"measurement": "animals alive (Figure 5d)", "setting": "1x50, Day 7.99", "result": 17},
      {"measurement": "survival (Figure 5d)", "setting": "1x50, Day 7.99", "result": 89, "unit": "%"},
      {"measurement": "animals alive (Figure 5d)", "setting": "1x50, Day 8.01", "result": 15},
      {"measurement": "survival (Figure 5d)", "setting": "1x50, Day 8.01", "result": 79, "unit": "%"},
      {"measurement": "animals alive (Figure 5d)", "setting": "1x50, Day 8.1", "result": 15},
      {"measurement": "survival (Figure 5d)", "setting": "1x50, Day 8.1", "result": 79, "unit": "%"},
      {"measurement": "survival", "setting": "2 x 25 mg/kg s.c.", "result": 100, "unit": "%"},
      {"measurement": "animals alive (Figure 5d)", "setting": "2x25, Day 0", "result": 18},
      {"measurement": "survival (Figure 5d)", "setting": "2x25, Day 0", "result": 100, "unit": "%"},
      {"measurement": "animals alive (Figure 5d)", "setting": "2x25, Day 4.99", "result": 18},
      {"measurement": "survival (Figure 5d)", "setting": "2x25, Day 4.99", "result": 100, "unit": "%"},
      {"measurement": "animals alive (Figure 5d)", "setting": "2x25, Day 5.01", "result": 18},
      {"measurement": "survival (Figure 5d)", "setting": "2x25, Day 5.01", "result": 100, "unit": "%"},
      {"measurement": "animals alive (Figure 5d)", "setting": "2x25, Day 5.99", "result": 18},
      {"measurement": "survival (Figure 5d)", "setting": "2x25, Day 5.99", "result": 100, "unit": "%"},
      {"measurement": "animals alive (Figure 5d)", "setting": "2x25, Day 6.01", "result": 18},
      {"measurement": "survival (Figure 5d)", "setting": "2x25, Day 6.01", "result": 100, "unit": "%"},
      {"measurement": "animals alive (Figure 5d)", "setting": "2x25, Day 6.99", "result": 18},
      {"measurement": "survival (Figure 5d)", "setting": "2x25, Day 6.99", "result": 100, "unit": "%"},
      {"measurement": "animals alive (Figure 5d)", "setting": "2x25, Day 7.01", "result": 18},
      {"measurement": "survival (Figure 5d)", "setting": "2x25, Day 7.01", "result": 100, "unit": "%"},
      {"measurement": "animals alive (Figure 5d)", "setting": "2x25, Day 7.99", "result": 18},
      {"measurement": "survival (Figure 5d)", "setting": "2x25, Day 7.99", "result": 100, "unit": "%"},
      {"measurement": "animals alive (Figure 5d)", "setting": "2x25, Day 8.01", "result": 18},
      {"measurement": "survival (Figure 5d)", "setting": "2x25, Day 8.01", "result": 100, "unit": "%"},
      {"measurement": "animals alive (Figure 5d)", "setting": "2x25, Day 8.1", "result": 18},
      {"measurement": "survival (Figure 5d)", "setting": "2x25, Day 8.1", "result": 100, "unit": "%"},
      {"measurement": "animals alive (Figure 5d)", "setting": "2x50, Day 0", "result": 19},
      {"measurement": "survival (Figure 5d)", "setting": "2x50, Day 0", "result": 100, "unit": "%"},
      {"measurement": "animals alive (Figure 5d)", "setting": "2x50, Day 4.99", "result": 19},
      {"measurement": "survival (Figure 5d)", "setting": "2x50, Day 4.99", "result": 100, "unit": "%"},
      {"measurement": "animals alive (Figure 5d)", "setting": "2x50, Day 5.01", "result": 19},
      {"measurement": "survival (Figure 5d)", "setting": "2x50, Day 5.01", "result": 100, "unit": "%"},
      {"measurement": "animals alive (Figure 5d)", "setting": "2x50, Day 5.99", "result": 19},
      {"measurement": "survival (Figure 5d)", "setting": "2x50, Day 5.99", "result": 100, "unit": "%"},
      {"measurement": "animals alive (Figure 5d)", "setting": "2x50, Day 6.01", "result": 19},
      {"measurement": "survival (Figure 5d)", "setting": "2x50, Day 6.01", "result": 100, "unit": "%"},
      {"measurement": "animals alive (Figure 5d)", "setting": "2x50, Day 6.99", "result": 19},
      {"measurement": "survival (Figure 5d)", "setting": "2x50, Day 6.99", "result": 100, "unit": "%"},
      {"measurement": "animals alive (Figure 5d)", "setting": "2x50, Day 7.01", "result": 17},
      {"measurement": "survival (Figure 5d)", "setting": "2x50, Day 7.01", "result": 89, "unit": "%"},
      {"measurement": "animals alive (Figure 5d)", "setting": "2x50, Day 7.99", "result": 17},
      {"measurement": "survival (Figure 5d)", "setting": "2x50, Day 7.99", "result": 89, "unit": "%"},
      {"measurement": "animals alive (Figure 5d)", "setting": "2x50, Day 8.01", "result": 16},
      {"measurement": "survival (Figure 5d)", "setting": "2x50, Day 8.01", "result": 84, "unit": "%"},
      {"measurement": "animals alive (Figure 5d)", "setting": "2x50, Day 8.1", "result": 16},
      {"measurement": "survival (Figure 5d)", "setting": "2x50, Day 8.1", "result": 84, "unit": "%"},
      {"measurement": "bulk calcium in carotid artery and femoral artery", "setting": "2 × 25 mg/kg/day", "result": "significant reduction in bulk calcium"},
      {"measurement": "Mortality rate", "setting": "2 × 25 mg/kg/day s.c. (0/18)", "result": 0, "unit": "%"}
    ]}
  ]
}
